Test results reported in US20250089715A1, “INSECTICIDAL MIXTURES” (ADAMA MAKHTESHIM LTD., priority 2021, published 2025).

How the values were obtained:
[1] = test system: Helicoverpa armigera (Heliothis) larvae; experiment: Leaf-dip bioassay on Helicoverpa armigera larvae (cotton leaves); assay type: in vivo; settings: for Lethal concentrations for Helicoverpa armigera (Heliothis), LD50 / Lethal concentrations for Helicoverpa armigera (Heliothis), LD90: third instar larvae, treated cotton leaves, probit analysis
Experimental: (§1) The laboratory susceptible strain of S. littoralis is collected in 2000 from a cotton field in Bet She'an area ([…] part of Israel) and is reared on castor bean (Ricinus communis) leaves under standard rearing conditions of 27° C., 55% RH and 14 h photoperiod. Field strain of H. armigera was collected in June 2020 from cotton fields near Rehovot area and was reared on premixed diet (Ward's Stonefly Heliothis Diet, USA) under standard rearing conditions of 27° C., 55% RH and 14 h photoperiod.
Tender leaves of cotton were dipped in aqueous concentrations of a formulation or in water as control. After 15 seconds of dipping, the cotton leaves were then allowed to air dry for 2 h. Afterwards, Heliothis larvae (third instars, 8-10 mm), reared in a controlled growth room (27±2° C. and 50% RH with a photoperiod of 14:10 h light:dark) were put inside Petri dishes on treated cotton leaves; in addition, filter papers were also added to the dishes (to avoid too much moisture). The experiments were done on 5-10 larvae for each concentration and were repeated three times, on separate days.
Mortality of the larvae in comparison with the control was determined, two and five-six days after exposure to the formulations.
(§2) To obtain a concentration-mortality line, at least three concentrations were used for most of the bioassays. LC values were estimated by probit analysis (POLO, 1987). Control mortality was corrected using Abbott's (1925) formula.
(§3) Firstly, all the compounds were assessed alone against the larvae, and then, binary mixtures of chlorantraniliprole with tau-fluvalinate were evaluated in different ratios.

[2] = test system: Spodoptera littoralis larvae; experiment: Leaf-dip feeding bioassay on Spodoptera littoralis larvae (castor bean leaves); assay type: in vivo; settings: for Lethal concentrations for Spodoptera littoralis, LD50 / Lethal concentrations for Spodoptera littoralis, LD90: early 3rd-instar larvae, treated castor bean leaves, probit analysis
Experimental: as §1
Assays with S. littoralis larvae were done as described by Ishaaya et al. (1996, 2003). Castor bean leaves were dipped in various concentrations of the test compounds (and water as control), and were air dried for 2 h under controlled room conditions. The treated leaves were transferred into foam plastic (“Kalkar”) cups containing a layer of sawdust to avoid humidity. The treated leaves were offered to early 3rd-instar (12±1 mg) for 4-day feeding of the laboratory susceptible strain and for additional 4 days on untreated leaves. Larval mortality was determined and recorded on day 4 and 8 or as indicated, and larval weight gain (LWG) was determined on day 4 and 8 or as indicated.
as §2, §3

Compound	mortality at 0.05 ppm ([1]; Helicoverpa armigera, 0.05 ppm, alone, read-out: H. armigera mortality, %) [%]	mortality at 0.1 ppm ([1]; Helicoverpa armigera, 0.1 ppm, alone, read-out: H. armigera mortality, %) [%]	Lethal concentrations for Helicoverpa armigera (Heliothis), LD50 [1]	Lethal concentrations for Helicoverpa armigera (Heliothis), LD90 [1]	mortality at 0.05 ppm ([2]; Spodoptera littoralis, in Ricinus communis, 0.05 ppm, alone, read-out: S. littoralis mortality, %) [%]	mortality at 0.1 ppm ([2]; Spodoptera littoralis, in Ricinus communis, 0.1 ppm, alone, read-out: S. littoralis mortality, %) [%]	Lethal concentrations for Spodoptera littoralis, LD50 [2]	Lethal concentrations for Spodoptera littoralis, LD90 [2]	mortality at 50 ppm ([1]; Helicoverpa armigera, 50 ppm, alone, read-out: H. armigera mortality, %) [%]	mortality at 100 ppm ([1]; Helicoverpa armigera, 100 ppm, alone, read-out: H. armigera mortality, %) [%]	mortality at 50 ppm ([2]; Spodoptera littoralis, in Ricinus communis, 50 ppm, alone, read-out: S. littoralis mortality, %) [%]	mortality at 100 ppm ([2]; Spodoptera littoralis, in Ricinus communis, 100 ppm, alone, read-out: S. littoralis mortality, %) [%]
CNC(=O)c1cc(Cl)cc(C)c1NC(=O)c1cc(Br)nn1-c1ncccc1Cl [Chlorantraniliprole]	18	40	LD50 ≥ 0.1 ppm	LD90 ≥ 1 ppm	27	48	LD50 = 0.1 ppm	LD90 = 1 ppm	–	–	–	–
CC(C)[C@@H](Nc1ccc(C(F)(F)F)cc1Cl)C(=O)OC(C#N)c1cccc(Oc2ccccc2)c1 (stereo partly shown) [Tau-fluvalinate]	–	–	LD50 ≥ 100 ppm	LD90 ≥ 500 ppm	–	–	LD50 ≥ 100 ppm	LD90 ≥ 500 ppm	30	45	20	40
